Reference: patent US12459951B2, “Compounds that interact with RAS superfamily proteins for treatment of cancers, inflammatory diseases, rasopathies, and fibrotic disease” (SHY Therapeutics, LLC, priority 2022, dated 2025)

How the values were obtained:
[1] = test system: KRas wild type; assay: Ras GTP Binding Domain Inhibition Assay (Ras Superfamily Assay); settings: 20 μM compound; for KRas wild type + SOS: % inh.: with SOS; for KRas wild type: % inh.: without SOS
Excerpt: (§1) Biological Example 3: Ras GTP Binding Domain Inhibition Assay
(§2) The assays described in Example 3 are collectively referred to as the “Ras Superfamily Assay” throughout this application.
(§3) A Ras Superfamily Activity Assay (as disclosed in International Application No. PCT/US2018/038613, filed Jun. 20, 2018, which is incorporated by reference in its entirety) was used as a specific assay to evaluate compounds against the following for the following Ras Superfamily proteins: KRas wild type, KRas Q61H mutant, KRas G12C mutant, KRas G12D mutant, Rac-1, and Rho-A.
(§4) • 25 mM Tris-HCl, pH 7.4 • 27 mM KCl • 137 mM NaCl • 1 mM MgCl2 • 1 mM DTT Buffer-II: • 50 mM Tris-HCl, pH 7.0 • 1 mM MgCl2 • 1 mM DTT
(§5) The small GTPases proteins: KRas wild type. KRas Q61H mutant, KRas G12C mutant, KRas G12D mutants, Rac-1, and Rho-A were expressed as His-tagged proteins. In addition, the Guanosine nucleotide Exchange Factor (GEF) Sos protein (residues 556-1049) was expressed as a His-tagged protein. In cells, the guanine nucleotide exchange factor Sos protein promotes activation of Ras proteins by stimulating an exchange of GDP for GTP. The inclusion of Sos to the Ras GTP binding domain inhibition assay may be considered as an alternative representation of physiological cellular conditions for evaluating the inhibitory activity of some of the tested small molecules.
(§6) For the assay, all purified small GTPases proteins were diluted in Buffer-I or Buffer-II to a final concentration of 10-30 μg/mL. 200 μL of each diluted protein was added to a nickel-coated 96-well plate and incubated overnight at 4° C. Then the protein solution was discarded and 200 μL of Buffer-I or Buffer-II was added to each well in the presence of 1% DMSO. Compounds to be tested were added to the protein-coated wells at final concentration of 20 μM, and incubated for 3 hours at room temperature with and without 10-30 μg/mL of Sos added to the final hour of the incubation. When performing IC50 measurements a serial dilution of all tested concentrations was added. Then Cy3-GTP or Cy5-GTP was added to each well to a final concentration of 100 nM. The labeled GTP was incubated for 45 minutes at room temperature. Following GTP incubation, wells were washed 3× in Buffer-I or Buffer-II and 200 μL of Buffer-I or Buffer-II was added to each well. Following washes, the amount of bound labeled-GTP was measured using a SpectraMax M3 (Molecular Devices).

[2] = test system: KRas G12D mutant; assay: as above; settings: 20 μM compound; for KRas G12D mutant + SOS: % inh.: with SOS; for KRas G12D mutant: % inh.: without SOS
Excerpt: as §1, §2, §3, §4, §5, §6

[3] = target: T1, Rac-1 (Homo sapiens, UniProt P63000); assay: as above; settings: read-out: Rac-1: % inh.
T1 construct: made in house
Excerpt: as §1, §2, §3, §4, §5, §6

[4] = test system: Smad2/Smad3 phosphorylation; assay: Phospho-Smad2/3 Inhibition Assay (western blot), Panc-1; type: cell-based, human; settings: at 10 μM, Panc-1 pancreatic cancer cell line; starred symbols = activation
Description: Protocol for Phospho-Smad2/3 Inhibition Assay
This assay is referred to as the “Phospho-Smad2/3 Inhibition Assay” throughout this application.
Cell lines: Human tumor-derived pancreatic cancer cell line Panc-1 (expressing KRas G12D mutant) and mouse muscle myoblast C2C12 were purchased from American Type Culture Collection and grown in complete DMEM-High Glucose, supplemented with penicillin (100 U/mL), streptomycin (100 μg/mL), and 10% heat-inactivated FBS at 37° C. in a humidified incubator with 5% CO2.
Method: Cells were plated at 350000 cells/well density in a 12-well plate, allowed 3 hours to adhere to the plate, then starved in the appropriate medium in the presence of 0.5% FBS overnight. The small molecules to be tested were added to the cells in the final concentration of 10 μM in the presence of 0.3% DMSO for 3 hours incubation at 37° C. For IC50 value determination, serial dilutions of compounds were added to cells under the same conditions. Next, Panc-1 cells were stimulated with 10 ng/ml TGF-b1 for 1 hour, and C2C12 cells were stimulated with 10 ng/ml TGF-b1 for 20 minutes (recombinant human TGF-b1, R&D Systems). After stimulation cells were lysed with lysis buffer containing 1% Triton X-100, EDTA, and Halt™ Protease & Phosphatase Inhibitor Cocktail (Thermo Scientific). Protein concentration was assessed by BCA protein assay (Thermo Scientific). Phosphorylation level of Smad2/Smad3 was determined by western blot.
Western blot protocol: Equal amounts of protein (15-50 μg) were separated by SDS-PAGE and transferred to nitrocellulose membranes (Invitrogen by Thermo Fisher Scientific). The membrane was stained with Ponceau S Stain (Boston BioProducts) to verify uniform protein loading. Membranes were blocked with 10% milk and phosphorylation levels of Smad2/Smad3 were assessed by incubating overnight at 4° C. with the following antibodies: Phospho-Smad2 (Ser465/467) and Phosph-Smad3 (Ser423/425), both from Cell Signaling Technology. Then the membranes were incubated with HRP-conjugated secondary antibody (Jackson Immunoresearch, West Grove, PA). Bands were incubated in Amersham ECL Prime Western Blotting Detection Reagent (GE Healthcare) and visualized using the ChemiDoc MP imaging system (Bio-Rad).

[5] = test system: IL6; assay: IL-6 Quantification Assay (ELISA), LPS-stimulated RAW 264.7; type: cell-based; design: inhibition: dose or concentration left out as unconfirmed; settings: Mus musculus, RAW264.7; read-out: IL-6: % inh.
[6] = test system: TNF-alpha; assay: TNF-alpha Quantification Assay (ELISA), LPS-stimulated RAW 264.7; type: cell-based; settings: Mus musculus, RAW264.7; at 10 μM; read-out: TNFα: % inh.

Cc1c(-c2ccn(C)n2)cn2nc(-c3nccn3C)nc(Nc3cc(OC(C)C)ccn3)c12 [Compound 136, N-(4-Isopropoxypyridin-2-yl)-5-methyl-2-(1-methyl-1H-imidazol-2-yl)-6-(1-methyl-1H-pyrazol-3-yl)pyrrolo[2,1-f][1,2,4]triazin-4-amine]
KRas wild type + SOS: % inh. [1]: D (D = 76-100% inhibition) | KRas wild type: % inh. [1]: C (C = 50-75% inhibition) | KRas G12D mutant + SOS: % inh. [2]: D (D = 76-100% inhibition) | KRas G12D mutant: % inh. [2]: D (D = 76-100% inhibition) | inhibition at 20 µM [3]: 76 to 100% | % inh of Smad2/3 phosphorylation in Panc-1 [4]: A (A = 1-25% inhibition) | inhibition [5]: 25 to 49% | inhibition at 10 µM [6]: 1 to 24%

Cc1c(-c2ccn(C(C)C)n2)cn2nc(-c3nccn3C)nc(Nc3nccn3C)c12 [Compound 93, 6-(1-Isopropyl-1H-pyrazol-3-yl)-5-methyl-N,2-bis(1-methyl-1H-imidazol-2-yl)pyrrolo[2,1-f][1,2,4]triazin-4-amine]
KRas wild type + SOS: % inh. [1]: D (D = 76-100% inhibition) | KRas wild type: % inh. [1]: D (D = 76-100% inhibition) | KRas G12D mutant + SOS: % inh. [2]: D (D = 76-100% inhibition) | KRas G12D mutant: % inh. [2]: D (D = 76-100% inhibition) | inhibition at 20 µM [3]: 76 to 100% | % inh of Smad2/3 phosphorylation in Panc-1 [4]: A (A = 1-25% inhibition) | inhibition [5]: 75 to 100% | inhibition at 10 µM [6]: 75 to 100%

Cc1c(-c2ccn(C3CC3)n2)cn2nc(-c3nccn3C)nc(Nc3cc(OC(F)F)ccn3)c12 [Compound 139, 6-(1-Cyclopropyl-1H-pyrazol-3-yl)-N-(4-(difluoromethoxy)pyridin-2-yl)-5-methyl-2-(1-methyl-1H-imidazol-2-yl)pyrrolo[2,1-f][1,2,4]triazin-4-amine]
KRas wild type + SOS: % inh. [1]: D (D = 76-100% inhibition) | KRas wild type: % inh. [1]: D (D = 76-100% inhibition) | KRas G12D mutant + SOS: % inh. [2]: D (D = 76-100% inhibition) | KRas G12D mutant: % inh. [2]: D (D = 76-100% inhibition) | inhibition at 20 µM [3]: 76 to 100% | % inh of Smad2/3 phosphorylation in Panc-1 [4]: A* (A* = 1-25% activation) | inhibition [5]: 50 to 74% | inhibition at 10 µM [6]: 1 to 24%

Cc1c(-c2ccn(C)n2)cn2nc(-c3nccn3C)nc(Nc3cc(OC(F)F)ccn3)c12 [Compound 128, N-(4-(Difluoromethoxy)pyridin-2-yl)-5-methyl-2-(1-methyl-1H-imidazol-2-yl)-6-(1-methyl-1H-pyrazol-3-yl)pyrrolo[2,1-f][1,2,4]triazin-4-amine]
KRas wild type + SOS: % inh. [1]: D (D = 76-100% inhibition) | KRas wild type: % inh. [1]: D (D = 76-100% inhibition) | KRas G12D mutant + SOS: % inh. [2]: D (D = 76-100% inhibition) | KRas G12D mutant: % inh. [2]: D (D = 76-100% inhibition) | inhibition at 20 µM [3]: 76 to 100% | % inh of Smad2/3 phosphorylation in Panc-1 [4]: A (A = 1-25% inhibition) | inhibition [5]: 25 to 49% | inhibition at 10 µM [6]: 25 to 49%

Cc1c(-c2ccn(C3CC3)n2)cn2nc(-c3nccn3C)nc(Nc3ccccn3)c12 [Compound 143, 6-(1-Cyclopropyl-1H-pyrazol-3-yl)-5-methyl-2-(1-methyl-1H-imidazol-2-yl)-N-(pyridin-2-yl)pyrrolo[2,1-f][1,2,4]triazin-4-amine]
KRas wild type + SOS: % inh. [1]: D (D = 76-100% inhibition) | KRas wild type: % inh. [1]: D (D = 76-100% inhibition) | KRas G12D mutant + SOS: % inh. [2]: D (D = 76-100% inhibition) | KRas G12D mutant: % inh. [2]: D (D = 76-100% inhibition) | inhibition at 20 µM [3]: 76 to 100% | % inh of Smad2/3 phosphorylation in Panc-1 [4]: A (A = 1-25% inhibition) | inhibition [5]: 75 to 100% | inhibition at 10 µM [6]: 50 to 74%

COc1cc(-c2cn3nc(-c4nccn4C)nc(N[C@H]4C[C@@H](OC)C4)c3c2C)ccn1 [Compound 162, N-((1s,3s)-3-Methoxycyclobutyl)-6-(2-methoxypyridin-4-yl)-5-methyl-2-(1-methyl-1H-imidazol-2-yl)pyrrolo[2,1-f][1,2,4]triazin-4-amine]
KRas wild type + SOS: % inh. [1]: 0 (0 = 0% inhibition) | KRas wild type: % inh. [1]: A (A = 1-25% inhibition) | KRas G12D mutant + SOS: % inh. [2]: 0 (0 = 0% inhibition) | KRas G12D mutant: % inh. [2]: 0 (0 = 0% inhibition) | inhibition at 20 µM [3]: 0% | % inh of Smad2/3 phosphorylation in Panc-1 [4]: A (A = 1-25% inhibition) | inhibition [5]: 25 to 49% | inhibition at 10 µM [6]: 25 to 49%

Cc1c(-c2ccn(C3CC3)n2)cn2nc(-c3nccn3C)nc(O)c12 [Compound 134, 6-(1-Cyclopropyl-1H-pyrazol-3-yl)-5-methyl-2-(1-methyl-1H-imidazol-2-yl)pyrrolo[2,1-f][1,2,4]triazin-4-ol]
KRas wild type + SOS: % inh. [1]: 0 (0 = 0% inhibition) | KRas wild type: % inh. [1]: 0 (0 = 0% inhibition) | KRas G12D mutant + SOS: % inh. [2]: A (A = 1-25% inhibition) | KRas G12D mutant: % inh. [2]: A (A = 1-25% inhibition) | inhibition at 20 µM [3]: 1 to 25% | % inh of Smad2/3 phosphorylation in Panc-1 [4]: B (B = 26-45% inhibition) | inhibition [5]: 1 to 24% | inhibition at 10 µM [6]: 1 to 24%

Cc1c(-c2cccnc2)cn2nc(-c3nccn3C)nc(Nc3ccncn3)c12 [Compound 156, 5-Methyl-2-(1-methyl-1H-imidazol-2-yl)-6-(pyridin-3-yl)-N-(pyrimidin-4-yl)pyrrolo[2,1-f][1,2,4]triazin-4-amine]
KRas wild type + SOS: % inh. [1]: D (D = 76-100% inhibition) | KRas wild type: % inh. [1]: D (D = 76-100% inhibition) | KRas G12D mutant + SOS: % inh. [2]: D (D = 76-100% inhibition) | KRas G12D mutant: % inh. [2]: D (D = 76-100% inhibition) | inhibition at 20 µM [3]: 76 to 100% | % inh of Smad2/3 phosphorylation in Panc-1 [4]: D (D = 76-100% inhibition) | inhibition [5]: 1 to 24% | inhibition at 10 µM [6]: 0%

Cc1c(-c2ccn(C3CC3)n2)cn2nc(-c3nccn3C)nc(Nc3cc(OCCN(C)C)ccn3)c12 [Compound 147, 6-(1-Cyclopropyl-1H-pyrazol-3-yl)-N-(4-(2-(dimethylamino)ethoxy)pyridin-2-yl)-5-methyl-2-(1-methyl-1H-imidazol-2-yl)pyrrolo[2,1-f][1,2,4]triazin-4-amine]
inhibition at 20 µM [3]: 0% | % inh of Smad2/3 phosphorylation in Panc-1 [4]: C (C = 46-75% inhibition) | inhibition [5]: 0% | inhibition at 10 µM [6]: 1 to 24%

Cc1c(-c2ccn(C3CC3)n2)cn2nc(-c3nccn3C)nc(Nc3cc(OCCCN(C)C)ccn3)c12 [Compound 148, 6-(1-Cyclopropyl-1H-pyrazol-3-yl)-N-(4-(3-(dimethylamino)propoxy)pyridin-2-yl)-5-methyl-2-(1-methyl-1H-imidazol-2-yl)pyrrolo[2,1-f][1,2,4]triazin-4-amine]
inhibition at 20 µM [3]: 0% | % inh of Smad2/3 phosphorylation in Panc-1 [4]: A (A = 1-25% inhibition) | inhibition [5]: 1 to 24% | inhibition at 10 µM [6]: 1 to 24%
